Assay results reported in patent US10894038B2, “Indolizine derivatives, composition and methods of use” (Shanghai Fochon Pharmaceutical Co., Ltd., priority 2015, dated 2021).

How the values were obtained:
URAT1 = URAT1 (Homo sapiens (Human), UniProt Q96S37); test: URAT1 in vitro inhibition activity, Method A (14C-uric acid uptake in HEK293-URAT-4 cells); format: cell-based; details: 50 μM 14C-uric acid, 10 min uptake
Protocol: The potency of the compounds of formula (I) as inhibitors of the URAT1 was determined as follow.
Cell Lines were generated in WuXi AppTec (HEK293-URAT-4: Stable cell line of HEK293 which was transfected with pcDNA3.1-URAT (Human SLC22A12 cDNA Clone, Abgent-DC07943). HEK293-PCDNA-5: Negative control cell of HEK293 which was transfected with pcDNA3.1 empty vector.
Cells were seeded onto 24-well plates at the density of 2.0×10^5 cells per well. The cells were incubated at 37° C., 5% CO2 overnight. After approximately 24 hours culture, cells were used for uptake experiments. The culture medium were removed from the wells and the cells were incubated in 0.4 ml/well of Hank's balanced salt solution (HBSS) for 10 min. HBSS was replaced with 0.18 ml/well fresh HBSS. Compounds were 5 folds serial diluted in DMSO, and then 25 folds diluted in HBSS. Compounds diluted with HBSS (10 μl) were added to relevant well of cell plates, and plates were incubated at 37° C., 5% CO2 for 15 min. The final concentration of DMSO in the assay was 0.2%. 10 μl HBSS containing radioactively labeled Urate (^14C-uric acid) was added to each well. The final concentration of ^14C-uric acid in the assay medium was 50 μM. After 10 min, the assay medium was immediately removed. The cells were washed quickly with 0.5 ml pre-chilled HBSS twice. 0.1 M NaOH (0.4 ml) was added to lyse the cells for at least 20 min. The cell lysate was collected to a scintillation vial, and scintillant (4 ml) was added and the radioactivity was counted by a liquid scintillation counter. Inhibiton % data were calculated using the formula
[formula] CPD: Signal from a well containing a test compound HC (high control): Average of signals from HEK293-URAT-4 cells LC (low control): Average of signals from HEK293-PCDNA-5.

[1] = system: potassium oxonate-induced hyperuricemia in rats; test: Effect on potassium oxonate-induced hyperuricemia in rats (serum uric acid); format: in vivo, rat; details: male SD rats, 5 mg/kg oral; for serum uric acid levels, time after dosing 0.5 h: 0.5 h after dosing; for serum uric acid levels, time after dosing 1 h: 1 h after dosing; for serum uric acid levels, time after dosing 2 h: 2 h after dosing; for serum uric acid levels, time after dosing 3 h: 3 h after dosing; for serum uric acid levels, time after dosing 4 h: 4 h after dosing
Protocol: Healthy male SD rats, weighing 250±20 g, were used. In the experiment, except for 10 rats as normal control group were orally administered with distilled water, the others were orally administered with yeast extract (20 g/kg, qd×5 days). One hour after last administration, all the rats were intraperitoneal injection with 250 mg/kg potassium oxonate while normal control group was treated with an equal volume of 0.5% CMC-Na (injection volume of 2 ml/kg). After one hour, rats were anesthetized with isoflurane and the serum uric acid was determined by uric acid test strip. All the rats were divided into groups by uric acid. The model control group and experimental groups was given orally administration 0.5% CMC-Na or compounds with a dose of 10 ml/kg-bw. Phosphotungstic acid precipitation method was used to detect serum uric acids in inner canthus blood at 0.5, 1, 2, 3, 4 h after administration, respectively. Substantially, observing the effects of compounds on serum uric acids levels and calculating each of groups' AUC and the inhibition of uric acid increased area by the equation as follows: […]
As shown in the equation, AUC0 indicated the AUC of model control group, AUC1 indicated the AUC of therapy group, AUC2 indicated the AUC of normal control group.

URAT1, sequence (Q96S37 whole entry): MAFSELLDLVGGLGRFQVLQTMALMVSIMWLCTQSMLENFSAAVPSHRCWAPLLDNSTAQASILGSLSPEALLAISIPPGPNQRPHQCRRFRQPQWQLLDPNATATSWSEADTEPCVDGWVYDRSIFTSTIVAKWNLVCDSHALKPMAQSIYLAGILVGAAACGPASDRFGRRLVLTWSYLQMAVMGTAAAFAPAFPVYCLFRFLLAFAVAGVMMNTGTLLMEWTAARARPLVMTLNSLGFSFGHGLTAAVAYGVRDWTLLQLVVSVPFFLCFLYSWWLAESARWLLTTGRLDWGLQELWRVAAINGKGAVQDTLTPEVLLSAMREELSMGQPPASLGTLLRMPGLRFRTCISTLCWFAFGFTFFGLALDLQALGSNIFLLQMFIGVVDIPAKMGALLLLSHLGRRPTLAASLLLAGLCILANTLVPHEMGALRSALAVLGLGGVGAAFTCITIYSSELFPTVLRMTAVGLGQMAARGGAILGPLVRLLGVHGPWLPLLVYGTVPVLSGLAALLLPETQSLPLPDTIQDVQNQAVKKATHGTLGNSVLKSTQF

IC50 (URAT1)	SMILES	serum uric acid levels, time after dosing 0.5 h [1]	serum uric acid levels, time after dosing 1 h [1]	serum uric acid levels, time after dosing 2 h [1]	serum uric acid levels, time after dosing 3 h [1]	serum uric acid levels, time after dosing 4 h [1]
30 nM	N#Cc1ccc(-c2cnccc2SC2(C(=O)O)CCC2)n2cccc12 [Example 1, 1-((3-(8-Cyanoindolizin-5-yl)pyridin-4-yl)thio)cyclobutane-1-carboxylic acid]	492.8 ± 82.4 µmol/L	506.0 ± 88.5 µmol/L	407.7 ± 100.7 µmol/L	343.2 ± 84.3 µmol/L	289.8 ± 77.8 µmol/L
44 nM	N#Cc1ccc(-c2cnccc2SC2(C(=O)O)CCC2)n2cc(C(F)(F)F)cc12 [Example 7, 1-((3-(8-cyano-2-(trifluoromethyl)indolizin-5-yl)pyridin-4-yl)thio)cyclobutane-1-carboxylic acid]	485.3 ± 79.3 µmol/L	510.0 ± 103.7 µmol/L	460.6 ± 87.4 µmol/L	381.3 ± 84.3 µmol/L	307.9 ± 71.0 µmol/L
110 nM	Cc1cc2c(C#N)ccc(-c3cnccc3SC3(C(=O)O)CCC3)n2c1 [Example 5, 1-((3-(8-cyano-2-methylindolizin-5-yl)pyridin-4-yl)thio)cyclobutane-1-carboxylic acid]					
